Test results reported in patent publication EP2853565A1, “Glutamate receptor photomodulators” (Consejo Superior De Investigaciones Científicas, priority 2013, dated 2015).

Assays:
[1] = biological target: T1, rat metabotropic glutamate receptor 5 (mGlu5) (Rattus norvegicus, UniProt P31424); experiment: Single-cell calcium imaging (Fura-2) of quisqualate-evoked calcium oscillations, with photoisomerization by 390/490 nm light; type: cell-based
T1 construct: expressed in transfected cells; host or cells: HEK tsA201 cells
T1 sequence (P31424 21-1171 isoform P31424-2 limits assumed): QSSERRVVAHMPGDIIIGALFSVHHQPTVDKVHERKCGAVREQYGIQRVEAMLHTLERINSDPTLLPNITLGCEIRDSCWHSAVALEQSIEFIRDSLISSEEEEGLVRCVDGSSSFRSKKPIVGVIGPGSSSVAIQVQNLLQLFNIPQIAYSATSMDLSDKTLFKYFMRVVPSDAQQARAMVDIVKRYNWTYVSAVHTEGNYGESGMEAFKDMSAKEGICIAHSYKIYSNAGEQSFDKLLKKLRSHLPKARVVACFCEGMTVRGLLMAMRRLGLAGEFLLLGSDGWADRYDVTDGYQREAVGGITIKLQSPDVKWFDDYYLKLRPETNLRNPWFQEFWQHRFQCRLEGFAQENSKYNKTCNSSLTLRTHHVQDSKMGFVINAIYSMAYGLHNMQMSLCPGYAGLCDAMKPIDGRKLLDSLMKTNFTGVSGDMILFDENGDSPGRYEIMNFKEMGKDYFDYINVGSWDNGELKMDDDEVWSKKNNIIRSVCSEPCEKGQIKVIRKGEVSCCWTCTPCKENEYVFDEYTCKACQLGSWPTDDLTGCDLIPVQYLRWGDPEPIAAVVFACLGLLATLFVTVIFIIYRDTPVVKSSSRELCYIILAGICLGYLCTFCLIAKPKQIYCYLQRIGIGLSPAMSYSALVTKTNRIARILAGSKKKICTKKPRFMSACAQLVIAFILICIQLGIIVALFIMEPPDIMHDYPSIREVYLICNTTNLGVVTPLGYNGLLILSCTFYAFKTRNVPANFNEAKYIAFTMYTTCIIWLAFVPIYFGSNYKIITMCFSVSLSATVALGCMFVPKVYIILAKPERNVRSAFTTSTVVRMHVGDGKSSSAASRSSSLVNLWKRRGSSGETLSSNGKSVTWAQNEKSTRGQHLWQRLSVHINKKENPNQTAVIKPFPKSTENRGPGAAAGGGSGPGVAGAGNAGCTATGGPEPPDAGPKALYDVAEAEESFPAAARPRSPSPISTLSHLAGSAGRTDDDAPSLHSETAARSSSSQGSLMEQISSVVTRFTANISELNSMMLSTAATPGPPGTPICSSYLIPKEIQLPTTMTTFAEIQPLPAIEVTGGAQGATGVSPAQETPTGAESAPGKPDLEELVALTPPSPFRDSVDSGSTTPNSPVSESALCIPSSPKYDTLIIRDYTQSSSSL
Procedure: Cell Culture and Transient Transfection: Human embryonic kidney (HEK) tsA201 cells were maintained at 37 °C and humidified atmosphere with 5% CO2; cells were grown in Dulbecco's Modified Eagle's Medium/Nutrient Mixture F-12 Ham (DMEM/F12, 1:1) medium, supplemented with 10% Fetal Bovine Serum (FBS) and antibiotics (1% Penicillin/Streptomycin). Once at confluence, culture flasks were washed twice with PBS and harvested with 300 µl Accutase. Expression of rat mGlu5a was induced by transient transfection of the cDNA-containing plasmid with X-tremeGENE 9 DNA Transfection Reagent. For transfection, cells were seeded at a concentration of 10^6 cells per well on 6-multiwell plates with a final volume of 2ml, and immediately transfected following manufacturer's instructions (100 µl mixture of 3:1 (µl:µg) of X-tremeGENE 9 DNA TR:mGlu5a plasmid in serum-free medium, 20 minutes incubation). About 24h after transfection, HEK tsA201 cells transiently overexpressing mGlu5a were seeded onto 15 mm glass coverslips pre-treated with Poly-L-Lysine to allow cell adhesion. Seeding concentration was maintained between 2/4·10^5 cells to get preconfluent cultures at the time of experiment. Transfected cells were used for single-cell calcium imaging experiments between 48 and 72 hours after transfection.
Single-cell Calcium Imaging: At the time of experiments, glass coverslips were mounted onto the recording chamber, and cells were loaded with the high affinity, ratiometric, intracellular calcium indicator Fura-2 AM; the dye was incubated during 30 minutes at 37°C and 5% CO2, at a final concentration of 10 µM in Ca^2+-free extracellular solution (ES, -Ca^2+). We used a ratiometric calcium sensor in order to avoid bleaching artefacts. Cells were then carefully rinsed with fresh ES, three to four times, before the recording chamber was placed on an inverted fully-motorised digital microscope (iMic 2000, Till Photonics, Gräfelfing, Germany). Images were acquired at room temperature with a UV Apochromat 40x oil objective lens (Olympus, Tokio, Japan). Fura-2 AM was excited consecutively for 10 ms at two different wavelengths (340 and 380 nm) as indicated by the manufacturer (Life Technologies, Paisley, UK) by using a Polychrome V light source (Till Photonics) and a 505 nm dichroic beamsplitter (Chroma Technology, Below Falls, VT, USA); emission at 510 nm was filtered by a D535/40nm emission filter (Chroma Technology) and finally collected by a cooled CCD camera (Interline Transfer IMAGO QE, Till Photonics). The fluorescence measurements (excitation + emission recording) were carried out every 2 seconds, and each measurement takes about 10-50 ms. The 340 and 380 nm images were stored by the TILLvisION imaging software (Till Photonics); the ratio of the emission when the sample was excited at 340 nm and the emission when it was excited at 380 nm was recorded and its mean value was calculated for each cell using the same software. Higher ratios correspond to higher intracellular calcium concentrations.
Agonists and allosteric modulators addition was obtained by carefully pipetting an initial 1:30 dilution of the compound directly into the accessory pool of the recording chamber, obtaining a final dilution of 1:1000 (total DMSO concentration was always lower than 1%). Activation of the agonist was induced in HEK tsA201 mGlu5a transfected cells with the glutamate analogue Quisqualic acid (3 µM). Only evoked, sustained intracellular calcium oscillations were taken into account as consistent cell responses to the application of the agonist; different responses (such as single-peak, peak-and-plateau, etc.), as well as spontaneously oscillating cells, were discarded as unsuitable for calculating the oscillatory frequency.
Solutions and Reagents: The extracellular solution (ES) used for single-cell calcium imaging contained: 140 mM NaCl, 5.4 mM KCI, 1 mM MgCl2, 10 mM HEPES, 10 mM glucose and 2 mM CaCl2 adjusted to pH 7.4 with NaOH. […]

[2] = biological target: T2, rat mGlu5 receptor (Rattus norvegicus, UniProt P31424); experiment: IP1 accumulation (IP-One HTRF) in transiently transfected HEK293 cells; type: cell-based; conditions: IP1 production, HEK293 cells with rat mGlu5 and EAAC1, 30 min incubation, 100 nM Quisqualate
T2 construct: expressed in transfected cells; host or cells: HEK293 cells (EAAC1 glutamate transporter cotransfected)
T2 sequence (P31424 21-1203): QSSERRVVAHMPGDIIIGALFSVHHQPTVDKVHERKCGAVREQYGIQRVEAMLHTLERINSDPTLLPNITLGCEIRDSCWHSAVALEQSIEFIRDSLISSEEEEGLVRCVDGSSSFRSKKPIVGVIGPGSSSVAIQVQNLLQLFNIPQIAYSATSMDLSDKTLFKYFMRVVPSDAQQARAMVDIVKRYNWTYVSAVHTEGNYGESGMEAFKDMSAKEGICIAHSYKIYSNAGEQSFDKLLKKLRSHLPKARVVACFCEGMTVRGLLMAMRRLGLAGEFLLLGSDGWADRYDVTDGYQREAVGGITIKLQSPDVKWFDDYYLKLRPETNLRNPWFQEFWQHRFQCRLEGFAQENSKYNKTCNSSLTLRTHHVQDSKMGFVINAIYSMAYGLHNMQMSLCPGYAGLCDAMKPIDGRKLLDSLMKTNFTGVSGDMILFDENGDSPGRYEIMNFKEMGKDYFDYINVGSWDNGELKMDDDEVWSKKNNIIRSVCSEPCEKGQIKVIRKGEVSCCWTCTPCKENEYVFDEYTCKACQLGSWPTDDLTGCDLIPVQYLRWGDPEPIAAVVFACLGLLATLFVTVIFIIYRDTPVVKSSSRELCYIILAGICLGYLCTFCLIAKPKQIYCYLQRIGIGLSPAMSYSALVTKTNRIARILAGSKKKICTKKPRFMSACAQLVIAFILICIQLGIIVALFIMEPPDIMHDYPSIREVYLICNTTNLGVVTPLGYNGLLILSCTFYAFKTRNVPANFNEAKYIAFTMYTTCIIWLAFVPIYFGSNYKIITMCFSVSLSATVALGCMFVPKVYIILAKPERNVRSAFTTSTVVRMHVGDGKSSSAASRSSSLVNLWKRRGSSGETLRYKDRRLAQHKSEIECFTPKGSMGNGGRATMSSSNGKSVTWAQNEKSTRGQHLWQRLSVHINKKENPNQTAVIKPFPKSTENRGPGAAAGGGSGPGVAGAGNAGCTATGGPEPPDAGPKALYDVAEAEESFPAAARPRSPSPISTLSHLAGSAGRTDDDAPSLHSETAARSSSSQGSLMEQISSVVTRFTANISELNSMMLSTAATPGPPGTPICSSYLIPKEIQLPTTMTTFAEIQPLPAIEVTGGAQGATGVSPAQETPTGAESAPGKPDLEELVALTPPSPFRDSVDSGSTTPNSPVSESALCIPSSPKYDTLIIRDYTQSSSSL
Procedure: Pharmacological experiments on mGlu receptors were performed in HEK293 cells cultured in Dulbecco's modified Eagle's medium (GIBCO-BRL Life Technologies Inc., Cergy Pontoise, France) supplemented with 10% fetal calf serum (FCS, GIBCO-BRL Life Technologies., Cergy Pontoise, France). The compounds were tested on a rat mGlu5 receptor, which was transiently transfected in HEK293 cells by electroporation as described elsewhere [Neuropharmacology 1998, 37, 1043-1051]. Additionally, a plasmid encoding the high-affinity glutamate transporter EAAC1 was cotransfected to prevent the influence of the glutamate released by the cells in the medium. Receptor activity is monitored by measurement of IP1 production using the kit IP-One HTRF® Assay from Cisbio Bioassays (France). For IP1 accumulation measurements, cells were seeded after transfection in polyornithine-coated, black-walled 96-well Polystyrene Cell Culture Microplates (Greiner Bio-One SAS, France) and cultured for 24 h in glutamate/glutamine-free medium (GIBCO-BRL Life Technologies Inc., Cergy Pontoise, France) and antibiotics (penicillin and streptomycin, 100 UmL_1 final, GIBCO-BRL Life Technologies). Media was removed and cells were incubated for 30min in a solution containing the drugs at the tested concentrations. The IP-One stimulation buffer, provided with the kit IP-One (Cisbio Bioassays, France), contains lithium chloride (LiCl) at 50mM that inhibits the degradation of IP1 to Myo-inositol, which is then accumulated in the cell. HTRF reagents, monoclonal antibody specific to IP1 labelled with terbium cryptate and IP1 coupled with the dye d2, diluted in a Lysis buffer were added. After 1 hour of incubation, time resolved fluorescence at 620nm and 665nm was measured with RUBYstar (BMG Labtech, Germany). The specific signal, which results from the energy transfer between […], is proportional to the ratio between the fluorescence emitted at 620 nm and 665 nm, and consequently to the concentration of IP1 in the lysate. All points were determined in triplicate. The dose-response curves were fitted using GraphPad Prism software and the following equation: y= [(ymax-ymin)/(1+10^(LogIC50-x))]+ymin, in which IC50 is the concentration of the compound necessary to obtain the half-maximal effect. (10 µM ≤ IC50 < 50 µM +; 2 µM ≤ IC50 < 10 µM ++; 500 nM ≤ IC50 < 2 µM +++; 100 nM ≤ IC50<500 nM ++++; IC50< 100 nM +++++) Table 14.

[3] = 3 µM quisqualate, HEK tsA201 cells

Row | Compound | IC50 [2] | also measured
1 | COc1cc(/C=C/c2ccccn2)ccc1NC(=O)c1ccccc1Cl [(E)-47, (E)-2-Chloro-N-(2-methoxy-4-(2-(pyridin-2-yl)vinyl)phenyl)benzamide, reference compound] |  | effect on mGlu5 response (calcium oscillations) [1, 3]: blocked the oscillatory responses of quisqualate
2 | COc1cc(/N=N\c2ccccn2)ccc1NC(=O)c1ccccc1Cl [(Z)-1c, (Z)-2-chloro-N-(2-methoxy-4-(pyridin-2-yldiazenyl)phenyl)benzamide] |  | effect on mGlu5 response (calcium oscillations) [1, 3]: increases this response
3 | COc1cc(/C=C\c2ccccn2)ccc1NC(=O)c1ccccc1Cl [(Z)-47, (Z)-2-Chloro-N-(2-methoxy-4-(2-(pyridin-2-yl)vinyl)phenyl)benzamide, reference compound] |  | effect on mGlu5 response (calcium oscillations) [1, 3]: inhibits mGlu5 activation
4 | N#Cc1cc(/N=N/c2ccccn2)ccc1NC(=O)c1ccccn1 [Compound 1g, (E)-N-(2-Cyano-4-(pyridin-2-yldiazenyl)phenyl)picolinamide] | 2000 to 10000 nM | 
5 | O=C(Nc1ccc(/N=N/c2ccccn2)cc1)c1ccccn1 [Compound 1h, (E)-N-(4-(Pyridin-2-yldiazenyl)phenyl)picolinamide] | 2000 to 10000 nM | 
6 | COc1cc(NC(=O)c2ccccn2)ccc1/N=N/c1ccccn1 [Compound 1i, (E)-N-(3-Methoxy-4-(pyridin-2-yldiazenyl)phenyl)picolinamide] | 10000 to 50000 nM | 
7 | COc1cc(/N=N/c2ccccn2)ccc1N1C(=O)c2ccccc2C1=O [Compound 1j, (E)-2-(2-Methoxy-4-(pyridin-2-yldiazenyl)phenyl)isoindoline-1,3-dione] | 2000 to 10000 nM | 
8 | O=C(Nc1ccccn1)c1ccc(/N=N/c2ccccn2)cc1 [Compound 1s, (E)-N-(Pyridin-2-yl)-4-(pyridin-2-yldiazenyl)benzamide] | 10000 to 50000 nM | 
9 | O=C(Nc1cccc(/N=N/c2ccccn2)c1)c1ccccn1 [Compound 1t, (E)-N-(3-(pyridin-2-yldiazenyl)phenyl)picolinamide] | 10000 to 50000 nM | 

Continued, in another order:

Row | IC50 [2] | Compound | also measured
10 | 500 to 2000 nM | COc1cc(/N=N/c2ccccn2)ccc1NC(=O)c1ccc(C(=O)c2ccccc2)cc1 [Compound 1a, (E)-4-Benzoyl-N-(2-methoxy-4-(pyridin-2-yldiazenyl)phenyl)benzamide] | 
11 | 500 to 2000 nM | COc1cc(/N=N/c2ccccn2)ccc1NC(=O)c1ccc(Cl)cc1Cl [Compound 1b, (E)-2,4-Dichloro-N-(2-methoxy-4-(pyridin-2-yldiazenyl)phenyl)benzamide] | 
12 | < 100 nM | COc1cc(/N=N/c2ccccn2)ccc1NC(=O)c1ccccc1Cl [Compound 1c, (E)-2-Chloro-N-(2-methoxy-4-(pyridin-2-yldiazenyl)phenyl)benzamide] | oscillatory frequency at 390 nm ([1]; 100 nM compound, 390 nm illumination, compared with quisqualate alone): significantly higher than with quisqualate alone; oscillatory responses to 3 µM quisqualate ([1]; 100 nM compound, in the dark or under 490 nm light): completely blocked; effect on mGlu5 response (calcium oscillations) [1, 3]: inhibit mGlu5 response; light dependence of the activity on mGlu5 ([1]; 3 µM quisqualate, UV (380/390 nm) and visible (500/490 nm) light): could be reversibly switched on and off at 390 nm and 490 nm; IC50 ([1]; in the dark or under 490 nm light, 3 µM quisqualate, HEK tsA201 cells, read-out: IC50 (inhibitory profile on calcium oscillations)): 30 nM
13 | 100 to 500 nM | COc1cc(/N=N/c2ccccn2)ccc1NC(=O)c1ccccn1 [Compound 1d, (E)-N-(2-Methoxy-4-(pyridin-2-yldiazenyl)phenyl)picolinamide] | 
14 | 100 to 500 nM | COc1cc(/N=N/c2ccccn2)ccc1NC(=O)c1cccnc1 [Compound 1e, (E)-N-(2-Methoxy-4-(pyridin-2-yldiazenyl)phenyl)nicotinamide] | 
15 | 500 to 2000 nM | COc1cc(/N=N/c2ccccn2)ccc1NC(=O)c1ccncc1 [Compound 1f, (E)-N-(2-Methoxy-4-(pyridin-2-yldiazenyl)phenyl)isonicotinamide] | 
16 | 500 to 2000 nM | COc1cc(/N=N/c2ccccn2)ccc1N(C(=O)c1ccccc1)C(=O)c1ccccc1 [Compound 1k, (E)-N-Benzoyl-N-(2-methoxy-4-(pyridin-2-yldiazenyl)phenyl)benzamide] | 
17 | 100 to 500 nM | COc1cc(/N=N/c2ccccn2)ccc1NC(=O)c1ccccc1 [Compound 1l, (E)-N-(2-Methoxy-4-(pyridin-2-yldiazenyl)phenyl)benzamide] | 
18 | < 100 nM | COc1cc(/N=N/c2ccccn2)ccc1NC(=O)C(C)C [Compound 1m, (E)-N-(2-Methoxy-4-(pyridin-2-yldiazenyl)phenyl)isobutyramide] | 
19 | < 100 nM | COc1cc(/N=N/c2ccccn2)ccc1NC(=O)C1CCCCC1 [Compound 1n, (E)-N-(2-Methoxy-4-(pyridin-2-yldiazenyl)phenyl)cyclohexanecarboxamide] | 
20 | 500 to 2000 nM | COc1cc(/N=N/c2ccccn2)ccc1NC(=O)Nc1ccccc1F [Compound 1o, (E)-1-(2-Fluorophenyl)-3-(2-methoxy-4-(pyridin-2-yldiazenyl)phenyl)urea] | 
21 | 100 to 500 nM | COc1cc(/N=N/c2ccccn2)ccc1NC(=O)c1ccccc1F [Compound 1p, (E)-2-Fluoro-N-(2-methoxy-4-(pyridin-2-yldiazenyl)phenyl)benzamide] | 
22 | 100 to 500 nM | COc1cc(/N=N/c2ccccn2)ccc1NC(=O)c1cscn1 [Compound 1r, (E)-N-(2-Methoxy-4-(pyridin-2-yldiazenyl)phenyl)thiazole-4-carboxamide] | 
